Like-named read-outs stand apart in the source and are kept apart here.
Key:
cancer cell lines = assay: Cancer cell proliferation activity (CellTiterGlo, 72 h); assay type: cell-based; details: for IC50: 72 h, read-out: IC50 cell proliferation
Summary of the method: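 Readout is CellTiterGlo luminescence after 72 h compound exposure (0.1% DMSO final), started one day post-seeding, at 37 °C.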

[1] = molecular target: human cytidine deaminase (CDA) (Homo sapiens, UniProt P32320); assay: Metabolism by human cytidine deaminase (CDA), substrate absorbance at 290 nm
Sequence of human cytidine deaminase (CDA) (P32320 whole entry): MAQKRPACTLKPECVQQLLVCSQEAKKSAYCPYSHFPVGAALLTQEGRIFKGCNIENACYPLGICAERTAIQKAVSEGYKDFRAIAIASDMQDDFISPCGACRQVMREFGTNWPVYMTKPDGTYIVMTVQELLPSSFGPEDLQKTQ
Method: Transfer 7.2 μl of each of the substrate DMSO stock in step 2 into a 500 μl 96-Well V-bottom Microplate, clear SBS footprint, cat #P-96-450V-C
Add 352.8 μl assay buffer to the wells
For deaminated product compounds mix 4 μl product with 196 μl assay buffer
This was incubated at 37° C. for 1 h. 200 μl of this mixture was transferred into the assay plate to serve as the product control.
Product+buffer: mix 80 ul of the 2.5× intermediate product stocks (from step 3) with 120 ul assay buffer into product control (no enzyme) wells
Incubate the plate alongside the 20 nM CDA enzyme intermediate stock at 37° C. to temperature equilibrate reagents
Add 120 μl of the 20 nM enzyme mix into the Substrate+CDA wells and start reading at 290 nm every 30 s for about 60 min
50 and 200 uM substrate and product
In 100 mM Tris, pH 7.5, 100 mM KCl, 0.8% carryover DMSO
5 min incubation at 37° C.
Absorbance at 290 nm every 30 s at 37° C. for 1 h using FlexStation 3
Convert A290 to concentration of substrate remaining at time t after enzyme addition:
[formula] • where: • St=absorbance reading of: substrate+CDA wells at time t • So=Average absorbance reading of: substrate+buffer wells • Po=Average absorbance reading of: product+buffer wells • [S]t=initial substrate concentration • Use GraphPad to plot [substrate] against time to calculate initial velocity or slope (μMs^−1) i.e. the linear range of each curve • Express rate in s^−1 by dividing initial velocity by the total enzyme concentration.
Plot rate against [substrate] and fit data to standard Michaelis Menten equation to obtain kcat and KM parameters.

Nc1nc(=O)n([C@H]2C[C@H](O)[C@](CO)(CF)O2)cc1F [Cpd. No. 197, 4-amino-5-fluoro-1-((2R,4S,5R)-5-(fluoromethyl)-4-hydroxy-5-(hydroxymethyl)tetrahydrofuran-2-yl)pyrimidin-2(1H)-one]
IC50 (cancer cell lines; 5637 (bladder)): 4 nM
IC50 (cancer cell lines; CLS439 (bladder)): > 50000 nM
IC50 (cancer cell lines; HS729 (muscle)): > 50000 nM
IC50 (cancer cell lines; J82 (bladder)): 216 nM
IC50 (cancer cell lines; JAR (placenta)): > 50000 nM
IC50 (cancer cell lines; MT3 (breast)): 16 nM
IC50 (cancer cell lines; PANCI (pancreas)): > 50000 nM
IC50 (cancer cell lines; PC3 (prostate)): > 50000 nM
IC50 (cancer cell lines; RD (muscle)): 66 nM
IC50 (cancer cell lines; T24 (bladder)): 98 nM
IC50 (cancer cell lines; Homo sapiens, 22Rv1, 72 h, 22RV1 (prostate)): 84 nM
IC50 (cancer cell lines; Homo sapiens, 786-0, 72 h, 786O (kidney)): > 50000 nM
IC50 (cancer cell lines; Homo sapiens, A204, 72 h, A204 (muscle)): 716 nM
IC50 (cancer cell lines; Homo sapiens, A549, 72 h, A549 (lung)): 75 nM
IC50 (cancer cell lines; Homo sapiens, A673, 72 h, A673 (bone)): 110 nM
IC50 (cancer cell lines; Homo sapiens, A2780, 72 h, A2780 (ovary)): 213 nM
IC50 (cancer cell lines; Homo sapiens, A-375, 72 h, A375 (skin)): 183 nM
IC50 (cancer cell lines; Homo sapiens, A-431, 72 h, A431 (skin)): 2 nM
IC50 (cancer cell lines; Homo sapiens, ACHN, ACHN (kidney)): 12 nM
IC50 (cancer cell lines; Homo sapiens, ASPC1, 72 h, ASPC1 (pancreas)): 11 nM
IC50 (cancer cell lines; Homo sapiens, BT-20, 72 h, BT20 (breast)): > 50000 nM
IC50 (cancer cell lines; Homo sapiens, BXPC-3, 72 h, BXPC3 (pancreas)): 0.4 nM
IC50 (cancer cell lines; Homo sapiens, C-33-A, C33A (endometrial)): 47 nM
IC50 (cancer cell lines; Homo sapiens, CAKI-1, 72 h, CAKI1 (kidney)): > 50000 nM
IC50 (cancer cell lines; Homo sapiens, COLO 205, 72 h, COLO205 (colon)): 18 nM
IC50 (cancer cell lines; Homo sapiens, COLO-678, 72 h, COLO678 (colon)): > 50000 nM
IC50 (cancer cell lines; Homo sapiens, Ca-Ski, CASKI (endometrial)): > 50000 nM
IC50 (cancer cell lines; Homo sapiens, Caco-2, 72 h, CACO2 (colon)): > 50000 nM
IC50 (cancer cell lines; Homo sapiens, Calu-6, 72 h, CALU6 (lung)): 76 nM
IC50 (cancer cell lines; Homo sapiens, DLD-1, 72 h, DLD1 (colon)): 8970 nM
IC50 (cancer cell lines; Homo sapiens, DU-145, 72 h, DU145 (prostate)): 425 nM
IC50 (cancer cell lines; Homo sapiens, EFO-21, 72 h, EFO21 (ovary)): > 50000 nM
IC50 (cancer cell lines; Homo sapiens, EJ-28, 72 h, EJ28 (bladder)): 66 nM
IC50 (cancer cell lines; Homo sapiens, Granta-519, 72 h, GRANTA-519 (hematological)): 10 nM
IC50 (cancer cell lines; Homo sapiens, HCT-15, 72 h, HCT15 (colon)): 1380 nM
IC50 (cancer cell lines; Homo sapiens, HCT-116, 72 h, HCT116 (colon)): 1110 nM
IC50 (cancer cell lines; Homo sapiens, HEK293, 72 h, HEK293 (kidney)): > 50000 nM
IC50 (cancer cell lines; Homo sapiens, HL-60, 72 h, HL-60 (hematological)): 247 nM
IC50 (cancer cell lines; Homo sapiens, HT-29, 72 h, HT29 (colon)): 60 nM
IC50 (cancer cell lines; Homo sapiens, HT-1080, 72 h, HT1080 (connective tissue)): 46 nM
IC50 (cancer cell lines; Homo sapiens, HeLa, HELA (endometrial)): > 50000 nM
IC50 (cancer cell lines; Homo sapiens, HepG2, 72 h, HEPG2 (liver)): 89 nM
IC50 (cancer cell lines; Homo sapiens, Hs-578T, HS578T (breast)): > 50000 nM
IC50 (cancer cell lines; Homo sapiens, IGROV-1, 72 h, IGROV1 (ovary)): 1590 nM
IC50 (cancer cell lines; Homo sapiens, IMR-90, 72 h, IMR90 (lung)): > 50000 nM
IC50 (cancer cell lines; Homo sapiens, JEG-3, 72 h, JEG3 (placenta)): 37 nM
IC50 (cancer cell lines; Homo sapiens, JIMT-1, 72 h, JIMT1 (breast)): > 50000 nM
IC50 (cancer cell lines; Homo sapiens, K562, 72 h, K-562 (hematological)): > 50000 nM
IC50 (cancer cell lines; Homo sapiens, Kasumi 1, 72 h, KASUMI-1 (hematological)): 76 nM
IC50 (cancer cell lines; Homo sapiens, L-363, 72 h, L-363 (hematological)): > 50000 nM
IC50 (cancer cell lines; Homo sapiens, LoVo, LOVO (colon)): 6 nM
IC50 (cancer cell lines; Homo sapiens, MCF7, 72 h, MCF7 (breast)): 181 nM
IC50 (cancer cell lines; Homo sapiens, MDA-MB-231, 72 h, MDAMB231 (breast)): > 50000 nM
IC50 (cancer cell lines; Homo sapiens, MDA-MB-435, 72 h, MDAMB435 (skin)): 924 nM
IC50 (cancer cell lines; Homo sapiens, MDA-MB-436, 72 h, MDAMB436 (breast)): 41 nM
IC50 (cancer cell lines; Homo sapiens, MDA-MB-468, 72 h, MDAMB468 (breast)): > 50000 nM
IC50 (cancer cell lines; Homo sapiens, MG-63, 72 h, MG63 (bone)): 361 nM
IC50 (cancer cell lines; Homo sapiens, MHH-ES-1, 72 h, MHHES1 (bone)): 2560 nM
IC50 (cancer cell lines; Homo sapiens, MIA PaCa-2, 72 h, MIAPACA2 (pancreas)): 904 nM
IC50 (cancer cell lines; Homo sapiens, MINO, MINO (hematological)): 2 nM
IC50 (cancer cell lines; Homo sapiens, MV4-11, 72 h, MV4-11 (hematological)): 44 nM
IC50 (cancer cell lines; Homo sapiens, NCI-H23, 72 h, NCI-H23 (lung)): 334 nM
IC50 (cancer cell lines; Homo sapiens, NCI-H82, 72 h, NCIH82 (lung)): 87 nM
IC50 (cancer cell lines; Homo sapiens, NCI-H292, 72 h, NCIH292 (lung)): 114 nM
IC50 (cancer cell lines; Homo sapiens, NCI-H460, 72 h, NCIH460 (lung)): 61 nM
IC50 (cancer cell lines; Homo sapiens, OVCAR-3, 72 h, OVCAR3 (ovary)): > 50000 nM
IC50 (cancer cell lines; Homo sapiens, OVCAR-4, 72 h, OVCAR4 (ovary)): > 50000 nM
IC50 (cancer cell lines; Homo sapiens, PLC-PRF-5, 72 h, PLCPRF5 (liver)): > 50000 nM
IC50 (cancer cell lines; Homo sapiens, Panc1005, 72 h, PANC1005 (pancreas)): > 50000 nM
IC50 (cancer cell lines; Homo sapiens, Ramos, RAMOS (hematological)): 292 nM
IC50 (cancer cell lines; Homo sapiens, SAOS-2, 72 h, SAOS2 (bone)): 6 nM
IC50 (cancer cell lines; Homo sapiens, SF-268, 72 h, SF268 (brain)): 187 nM
IC50 (cancer cell lines; Homo sapiens, SF-295, 72 h, SF295 (brain)): > 50000 nM
IC50 (cancer cell lines; Homo sapiens, SK-BR-3, 72 h, SKBR3 (breast)): 5 nM
IC50 (cancer cell lines; Homo sapiens, SK-HEP1, 72 h, SKHEP1 (liver)): 1320 nM
IC50 (cancer cell lines; Homo sapiens, SK-LMS-1, 72 h, SKLMS1 (uterus)): 298 nM
IC50 (cancer cell lines; Homo sapiens, SK-MEL-5, 72 h, SKMEL5 (skin; SKMELS [sic] in Table 9E)): > 50000 nM
IC50 (cancer cell lines; Homo sapiens, SK-MEL-28, 72 h, SKMEL28 (skin)): > 50000 nM
IC50 (cancer cell lines; Homo sapiens, SK-N-AS, SKNAS (brain)): > 50000 nM
IC50 (cancer cell lines; Homo sapiens, SK-N-SH, SKNSH (brain)): > 50000 nM
IC50 (cancer cell lines; Homo sapiens, SK-OV-3, 72 h, SKOV3 (ovary)): 71 nM
IC50 (cancer cell lines; Homo sapiens, SNB-75, 72 h, SNB75 (brain)): > 50000 nM
IC50 (cancer cell lines; Homo sapiens, SU-DHL10, 72 h, SU-DHL-10 (hematological)): 1160 nM
IC50 (cancer cell lines; Homo sapiens, SU-DHL-6, 72 h, SU-DHL-6 (hematological)): 143 nM
IC50 (cancer cell lines; Homo sapiens, SW-620, 72 h, SW620 (colon)): 82 nM
IC50 (cancer cell lines; Homo sapiens, TE-671, 72 h, TE671 (muscle)): 82 nM
IC50 (cancer cell lines; Homo sapiens, THP-1, 72 h, THP-1 (hematological)): 131 nM
IC50 (cancer cell lines; Homo sapiens, U2OS, U20S (bone; U2OS in Table 9E)): > 50000 nM
IC50 (cancer cell lines; Homo sapiens, U-87 MG, U87MG (brain)): > 50000 nM
IC50 (cancer cell lines; Homo sapiens, UMUC3, 72 h, UMUC3 (bladder)): 228 nM
IC50 (cancer cell lines; Homo sapiens, UO-31, 72 h, UO31 (kidney)): > 50000 nM
IC50 (cancer cell lines; Homo sapiens, WSU-NHL, WSU-NHL (hematological)): 448 nM
IC50 (cancer cell lines; NCI-H358M, NCIH358M (lung)): 19 nM
IC50 (cancer cell lines; PBMC, PBMC (hematological)): 3020 nM
IC50 (cancer cell lines; RD-ES, RDES (bone)): 10400 nM
cytotoxicity against a panel of cell lines (waterfall plot) (cancer cell lines; panel of cancer and non-cancer cell lines, figure legends FIG. 1-3): selectively cytotoxic in cancer cell lines with high DDR activity
metabolism (deamination) by human CDA (line graph) ([1]; 12 nM CDA, 50 and 200 uM substrate, 37° C., pH 7.5, figure legends FIG. 4-9): not metabolized
substrate conversion by CDA (Inactive) ([1]; rate of substrate conversion at 200 μM, could not be fitted): Inactive
